Results reported in PMC3914206.

Experiments:
panel of 442 kinases [1] = molecular target: T1, panel of 442 kinases (Homo sapiens, UniProt Q14164); assay type: binding; settings: Compound Concentration 10 µM
T1 construct: purchased KINOMEscan
T1 sequence (Q14164 1-716): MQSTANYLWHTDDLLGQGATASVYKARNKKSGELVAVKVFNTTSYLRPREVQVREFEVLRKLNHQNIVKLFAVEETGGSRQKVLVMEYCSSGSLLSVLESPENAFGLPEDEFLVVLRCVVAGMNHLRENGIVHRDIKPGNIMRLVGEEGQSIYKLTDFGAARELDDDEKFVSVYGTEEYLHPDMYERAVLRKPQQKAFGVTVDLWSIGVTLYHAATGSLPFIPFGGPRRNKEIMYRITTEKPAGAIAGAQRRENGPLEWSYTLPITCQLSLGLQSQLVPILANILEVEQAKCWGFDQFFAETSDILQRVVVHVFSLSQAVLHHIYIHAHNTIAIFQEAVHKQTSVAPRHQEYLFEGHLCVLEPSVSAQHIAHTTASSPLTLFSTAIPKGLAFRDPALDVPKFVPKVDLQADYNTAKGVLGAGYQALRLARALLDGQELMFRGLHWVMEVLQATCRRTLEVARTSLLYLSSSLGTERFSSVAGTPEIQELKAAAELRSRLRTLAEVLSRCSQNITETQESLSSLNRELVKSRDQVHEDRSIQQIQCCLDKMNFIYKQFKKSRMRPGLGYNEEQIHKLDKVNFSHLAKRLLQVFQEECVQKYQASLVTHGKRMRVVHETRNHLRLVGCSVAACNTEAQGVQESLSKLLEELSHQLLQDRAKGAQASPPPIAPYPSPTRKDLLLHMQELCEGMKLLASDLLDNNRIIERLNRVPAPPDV
Description: (§1) We assessed the selectivity of members of this scaffold using the KINOMEscan methodology across a near comprehensive panel of 442 kinases [[18,27]].

panel of 442 kinases [2] = molecular target: T2, panel of 442 kinases (Homo sapiens, UniProt Q06418); assay type: binding; settings: kinase TYRO3; compound concentration 10 µM
T2 construct: purchased KINOMEscan
T2 sequence (Q06418 41-890): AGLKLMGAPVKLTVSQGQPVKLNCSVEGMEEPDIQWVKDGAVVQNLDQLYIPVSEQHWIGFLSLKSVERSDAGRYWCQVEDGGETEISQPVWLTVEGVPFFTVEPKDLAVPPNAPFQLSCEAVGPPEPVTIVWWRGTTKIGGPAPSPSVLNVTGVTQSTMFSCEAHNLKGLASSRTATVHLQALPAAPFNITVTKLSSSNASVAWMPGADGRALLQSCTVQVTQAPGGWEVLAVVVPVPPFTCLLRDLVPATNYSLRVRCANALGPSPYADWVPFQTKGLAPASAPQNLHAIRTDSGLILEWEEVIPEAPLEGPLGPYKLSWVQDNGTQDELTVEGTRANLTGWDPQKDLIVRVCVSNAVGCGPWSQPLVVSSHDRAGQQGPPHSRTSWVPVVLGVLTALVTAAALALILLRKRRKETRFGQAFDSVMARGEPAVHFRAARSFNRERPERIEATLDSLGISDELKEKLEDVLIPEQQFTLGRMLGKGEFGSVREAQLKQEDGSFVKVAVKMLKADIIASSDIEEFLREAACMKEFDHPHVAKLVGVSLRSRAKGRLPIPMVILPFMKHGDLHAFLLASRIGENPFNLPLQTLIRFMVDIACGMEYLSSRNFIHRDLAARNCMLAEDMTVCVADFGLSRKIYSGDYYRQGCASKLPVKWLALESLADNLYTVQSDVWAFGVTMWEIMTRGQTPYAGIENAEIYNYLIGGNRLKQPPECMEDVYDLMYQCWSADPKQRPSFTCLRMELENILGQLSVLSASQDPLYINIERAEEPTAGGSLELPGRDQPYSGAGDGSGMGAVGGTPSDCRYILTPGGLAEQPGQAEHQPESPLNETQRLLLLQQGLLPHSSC
Description: as §1

| SMILES | KINOMEscan: IKK-epsilon (panel of 442 kinases [1]) | % Ctrl, TYRO3 (panel of 442 kinases [2]) |
| --- | --- | --- |
| COc1cc(C(=O)N2CCC(N3CCN(C)CC3)CC2)ccc1Nc1ncc2c(n1)N(C)c1ccccc1C(=O)N2C [15 (LRRK2-IN-1)] | 96 | 100 % Ctrl |
| COc1cc(C(=O)N2CCC(N3CCN(C)CC3)CC2)ccc1Nc1ncc2c(n1)N1CCc3cccc(c31)C(=O)N2C [Compound 24] |  | 100 % Ctrl |
| COc1cc(C(=O)N2CCC(N3CCN(C)CC3)CC2)ccc1Nc1ncc2c(n1)N(C1CCCC1)c1ccccc1C(=O)N2C [Compound 25, 11-cyclopentyl-2-((2-methoxy-4-(4-(4-methylpiperazin-1-yl)piperidine-1-carbonyl)phenyl)amino)-5-methyl-5H-benzo[e]pyrimido[5,4-b][1,4]diazepin-6(11H)-one] | 100 | 100 % Ctrl |
| CCOc1cc(C(=O)N2CCC(N3CCN(C)CC3)CC2)ccc1Nc1ncc2c(n1)N(C1CCCC1)c1ccccc1C(=O)N2C [Compound 26] | 100 | 100 % Ctrl |
